US20110262456A1, “METHOD OF TREATING ISCHEMIA REPERFUSION INJURY” (priority 2008, published 2011)
Like-named read-outs stand apart in the source and are kept apart here.

What was measured:
rabbit heart = conditions: application after the onset of cardiac ischemia, rabbit infarct model; cited from earlier work
[1] = tested on: HL-60 human promyelocytic leukemia cells; conditions: cited from earlier work
rabbit hearts = assay: Rabbit heart regional ischemia/reperfusion, infarct size as percentage of risk zone; type: in vivo, New Zealand White rabbits; conditions: ischemia alone, FIG. 9
Protocol: New Zealand White rabbits of either sex weighing nearly 3 Kg were anesthetized with intravenous sodium pentobarbital (30 mg/kg). Throughout the experiment, additional anesthesia was administered as needed (5-15 mg pentobarbital/15 min) A heating pad maintained rectal temperature between 38.5 and 39.5-C. Animals were intubated through a tracheotomy and ventilated with 100% O2 with the aid of a mechanical ventilator. To administer drugs, a PE 50 catheter filled with heparinized saline was placed in an ear vein. After a left thoractomy, a prominent branch of the left coronary artery was surrounded with a suture (2-0 silk) to form a snare. The rabbits were allowed to stabilize for 15 min after surgery before the protocols were begun. […] The coronary artery was re-occluded, and […] diameter green fluorescent microspheres (Duke Scientific Corp., Palo Alto, Calif.) were infused into the perfusate to demarcate the ischemic zone as the area of tissue without fluorescence (region at risk). […] The areas of infarct and risk zone were determined by planimetry of each slice and volumes were calculated by multiplying each area by its slice thickness and summing them for each heart. Infarct size is expressed as a percentage of the risk zone. […] All data are expressed as mean TS.E.M. One-way analysis of variance (ANOVA) combined with Tukey's posthoc test was performed on baseline hemodynamic and infarct data. […]

For `N#Cc1c(N)nc(SCC(N)=O)c(C#N)c1-c1ccc(OCC2CC2)cc1` [BAY-60-6583], the “reduction of the infarct size” value (rabbit heart) is given as “effective”.
For `CNC(=O)[C@H]1O[C@@H](n2cnc3c(NCc4cccc(I)c4)nc(Cl)nc32)[C@H](O)[C@@H]1O` [C1-IB-MECA], the “apoptosis in HL-60 cells, low concentrations” value ([1]; 10 nM or 1 μM) is listed as “protected against” and the “apoptosis in HL-60 cells” value ([1]; 10-30 μM) is listed as “induced apoptosis”.
In the case of `CNC(=O)[C@H]1O[C@@H](n2cnc3c(NCc4cccc(I)c4)ncnc32)[C@H](O)[C@@H]1O` [IB-MECA], the “apoptosis in HL-60 cells” value ([1]; 30 and 60 μM) is listed as “induced apoptosis”.
In the case of `CCNC(=O)[C@H]1O[C@@H](n2cnc3c(N)ncnc32)[C@H](O)[C@@H]1O` [NECA, 5′-N-ethylcarboxamidoadenosine], the “protection (inhibition of infarct size)” value (rabbit hearts) is reported as 50%.
